Data as given in publication PMC11094307, “Marine-derived EGFR inhibitors: novel compounds targeting breast cancer growth and drug resistance” (Frontiers in Pharmacology, 2024).
Where two headings read alike, the source gives them in different places.

What was measured:
MCF-7 cells = assay: MTT assay, MCF-7 growth inhibition; assay type: cell-based, human; details: Homo sapiens, read-out: EC50, MCF-7 cell viability
Procedure: Both mediums were enriched with 10% fetal bovine serum and 1% penicillin/streptomycin.
Cells in the exponential growth phase were seeded into 96-well plates and allowed to adhere overnight. […] After 24 h, 20 µL of Methyl-thiazolyldiphenyl-tetrazolium bromide (MTT, 5 mg/mL, Thermo Fisher Scientific) was added to each well and incubated for a minimum of 4 h. Following the incubation, the medium containing the compounds and MTT was removed from each well, and 200 µL of dimethyl sulfoxide (DMSO) was added.
(§1) All experiments were repeated at least three times, and the data are presented as mean ± standard deviation (SD). The statistical analyses were performed using Origin. EC50 or IC50 values were obtained by fitting the data to a four-parameter Hill model of the graph of log dose against percentage cell viability or inhibition from at least three sets of experiments. Difference between two groups were analyzed by Student’s t test (two-sided) and significance was set at p < 0.05. The specific details about statistical methods are introduced in respective figure legends.

EGFR T790M = biological target: T1, EGFR T790M (Homo sapiens, UniProt P00533, T790M); assay: Kinase inhibition assay (ADP-Glo, Promega); assay type: biochemical
T1 construct: purchased Promega Corporation, USA
Procedure: (§2) The extracellular ligand-binding domain of EGFR, tagged with His, and the intracellular tyrosine kinase (TK) domain of EGFR, tagged with GST, were acquired from Sinobiological, China. […] Cell lines including MCF-7, A549, A431, H1299, HL-60, and MCF-10A were obtained from the China Infrastructure Cell Line Resources.
(§3) The experiments were conducted in accordance with the manufacturer’s guidelines (Promega). The procedure began with a kinase reaction, where 5 μL of 1× kinase buffer was utilized, and the mixture was incubated at room temperature for 60 min. This step was followed by the addition of 5 μL of ADP-Glo™ reagent to terminate the kinase reaction and to deplete any remaining ATP, with a subsequent incubation period of 40 min at room temperature. Next, 10 μL of kinase detection reagent was added to convert ADP back into ATP, and luciferase along with luciferin was introduced to facilitate ATP detection. This mixture was then incubated at room temperature for an additional 30 min. Detection was carried out using a BioTek Synergy4 instrument, and data analysis, including curve fitting and presentation, was performed using GraphPad Prism version 5.0.
as §1

WT EGFR = biological target: T2, WT EGFR (Homo sapiens, UniProt P00533); assay: Kinase inhibition assay (ADP-Glo, Promega); assay type: biochemical; details: in vitro kinase assay
T2 construct: purchased Promega Corporation, USA
Procedure: as §2, §3, §1

[1] = biological target: T3, EGFR extracellular ligand binding domain (Homo sapiens, UniProt P00533); assay: SPR binding (Biacore 8K)
T3 construct: His; purchased Sinobiological, China
Source text: (§4) The extracellular ligand-binding domain of EGFR, tagged with His, and the intracellular tyrosine kinase (TK) domain of EGFR, tagged with GST, were acquired from Sinobiological, China. Kinase assay systems for both wild-type EGFR and its mutants—T790M, L858R, and the dual L858R/T790M—were procured from Promega Corporation, USA. Cell lines including MCF-7, A549, A431, H1299, HL-60, and MCF-10A were obtained from the China Infrastructure Cell Line Resources.
(§5) The binding affinities of compounds towards EGFR extracellular ligand binding domain and EGFR intracellular kinase domain were assayed using the SPR-based Biacore 8K instrument (Cytiva). Considering the purchased EGFR was fused with GST tag, GST alone was also immobilized on the chip to do the binding measurement. All the proteins were respectively immobilized on a CM5 sensor chip by using standard amine-coupling at 25°C with running buffer HEPES-P (20 mM HEPES buffer, […], 0.05% surfactant P20, pH 7.4). A reference channel was only activated and blocked to eliminate compound unspecific binding to the surface of the chip. The immobilization level of EGFR extracellular ligand binding domain, EGFR intracellular kinase domain and GST were all about 10,000 RU. […] Extra wash with 50% DMSO was added to remove the last remaining sample in the pipeline.

[2] = biological target: T4, EGFR intracellular kinase domain (Homo sapiens, UniProt P00533); assay: SPR ATP competition experiments (1 mM ATP); details: in the presence of ATP, Figure S6
[3] = biological target: T4, EGFR intracellular kinase domain; assay: SPR binding (Biacore 8K); parameters: the intracellular tyrosine kinase (TK) domain of EGFR, tagged with GST; purchased Sinobiological, China; details: without ATP
Source text: as §4, §5

EGFR L858R = biological target: T5, EGFR L858R (Homo sapiens, UniProt P00533, L858R); assay: Kinase inhibition assay (ADP-Glo, Promega); assay type: biochemical
T5 construct: purchased Promega Corporation, USA
Procedure: as §2, §3, §1

EGFR L858R/T790M = biological target: T6, EGFR L858R/T790M (Homo sapiens, UniProt P00533, L858R/T790M); assay: Kinase inhibition assay (ADP-Glo, Promega); assay type: biochemical
T6 construct: purchased Promega Corporation, USA
Procedure: as §2, §3, §1

[4] = biological target: T3, EGFR extracellular ligand binding domain; assay: SPR EGF competition experiments; details: for kon: read-out: ka
Source text: The protocol fixed the pre-flank contact time, analyte contact time, and post-flank contact time at 60 s, 60 s, and 120 s, respectively.

T2 sequence (P00533 25-1210): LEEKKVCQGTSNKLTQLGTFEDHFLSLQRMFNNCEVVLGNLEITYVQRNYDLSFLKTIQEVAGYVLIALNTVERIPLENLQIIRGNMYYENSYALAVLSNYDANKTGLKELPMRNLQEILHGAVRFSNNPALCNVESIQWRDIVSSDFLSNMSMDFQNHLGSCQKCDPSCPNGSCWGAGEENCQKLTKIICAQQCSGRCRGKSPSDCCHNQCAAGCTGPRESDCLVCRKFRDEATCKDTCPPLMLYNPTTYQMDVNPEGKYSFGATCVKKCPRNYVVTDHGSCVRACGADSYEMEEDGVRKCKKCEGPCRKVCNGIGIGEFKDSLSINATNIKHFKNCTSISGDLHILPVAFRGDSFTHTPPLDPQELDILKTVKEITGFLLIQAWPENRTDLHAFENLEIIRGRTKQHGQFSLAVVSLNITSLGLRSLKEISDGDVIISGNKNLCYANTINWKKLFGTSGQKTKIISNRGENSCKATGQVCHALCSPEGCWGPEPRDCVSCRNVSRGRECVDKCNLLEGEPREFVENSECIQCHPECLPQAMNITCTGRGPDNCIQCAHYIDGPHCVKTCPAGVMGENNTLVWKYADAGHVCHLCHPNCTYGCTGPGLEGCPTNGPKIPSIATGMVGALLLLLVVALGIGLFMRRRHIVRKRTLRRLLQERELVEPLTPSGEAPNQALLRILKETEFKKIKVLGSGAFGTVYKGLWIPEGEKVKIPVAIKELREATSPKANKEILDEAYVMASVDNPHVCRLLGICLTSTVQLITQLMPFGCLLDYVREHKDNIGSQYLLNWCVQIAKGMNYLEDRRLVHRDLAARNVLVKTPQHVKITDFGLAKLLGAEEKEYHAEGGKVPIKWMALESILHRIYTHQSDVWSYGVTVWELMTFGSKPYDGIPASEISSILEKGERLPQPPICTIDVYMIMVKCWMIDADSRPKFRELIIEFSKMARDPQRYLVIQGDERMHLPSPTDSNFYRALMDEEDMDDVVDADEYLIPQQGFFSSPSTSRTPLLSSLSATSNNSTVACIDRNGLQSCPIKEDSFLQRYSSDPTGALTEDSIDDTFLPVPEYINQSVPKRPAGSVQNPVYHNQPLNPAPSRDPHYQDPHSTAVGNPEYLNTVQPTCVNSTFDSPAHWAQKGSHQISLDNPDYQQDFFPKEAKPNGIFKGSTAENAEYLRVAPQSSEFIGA
T4 sequence (P00533 712-979 limits assumed): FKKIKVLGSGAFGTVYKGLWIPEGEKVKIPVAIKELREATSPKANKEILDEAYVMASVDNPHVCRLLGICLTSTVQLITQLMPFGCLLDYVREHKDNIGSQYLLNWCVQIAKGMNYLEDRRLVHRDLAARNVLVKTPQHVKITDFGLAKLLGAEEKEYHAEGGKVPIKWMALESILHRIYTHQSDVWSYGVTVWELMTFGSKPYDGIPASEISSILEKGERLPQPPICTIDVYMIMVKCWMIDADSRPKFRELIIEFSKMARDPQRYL
T1 sequence (P00533 25-1210 T790M): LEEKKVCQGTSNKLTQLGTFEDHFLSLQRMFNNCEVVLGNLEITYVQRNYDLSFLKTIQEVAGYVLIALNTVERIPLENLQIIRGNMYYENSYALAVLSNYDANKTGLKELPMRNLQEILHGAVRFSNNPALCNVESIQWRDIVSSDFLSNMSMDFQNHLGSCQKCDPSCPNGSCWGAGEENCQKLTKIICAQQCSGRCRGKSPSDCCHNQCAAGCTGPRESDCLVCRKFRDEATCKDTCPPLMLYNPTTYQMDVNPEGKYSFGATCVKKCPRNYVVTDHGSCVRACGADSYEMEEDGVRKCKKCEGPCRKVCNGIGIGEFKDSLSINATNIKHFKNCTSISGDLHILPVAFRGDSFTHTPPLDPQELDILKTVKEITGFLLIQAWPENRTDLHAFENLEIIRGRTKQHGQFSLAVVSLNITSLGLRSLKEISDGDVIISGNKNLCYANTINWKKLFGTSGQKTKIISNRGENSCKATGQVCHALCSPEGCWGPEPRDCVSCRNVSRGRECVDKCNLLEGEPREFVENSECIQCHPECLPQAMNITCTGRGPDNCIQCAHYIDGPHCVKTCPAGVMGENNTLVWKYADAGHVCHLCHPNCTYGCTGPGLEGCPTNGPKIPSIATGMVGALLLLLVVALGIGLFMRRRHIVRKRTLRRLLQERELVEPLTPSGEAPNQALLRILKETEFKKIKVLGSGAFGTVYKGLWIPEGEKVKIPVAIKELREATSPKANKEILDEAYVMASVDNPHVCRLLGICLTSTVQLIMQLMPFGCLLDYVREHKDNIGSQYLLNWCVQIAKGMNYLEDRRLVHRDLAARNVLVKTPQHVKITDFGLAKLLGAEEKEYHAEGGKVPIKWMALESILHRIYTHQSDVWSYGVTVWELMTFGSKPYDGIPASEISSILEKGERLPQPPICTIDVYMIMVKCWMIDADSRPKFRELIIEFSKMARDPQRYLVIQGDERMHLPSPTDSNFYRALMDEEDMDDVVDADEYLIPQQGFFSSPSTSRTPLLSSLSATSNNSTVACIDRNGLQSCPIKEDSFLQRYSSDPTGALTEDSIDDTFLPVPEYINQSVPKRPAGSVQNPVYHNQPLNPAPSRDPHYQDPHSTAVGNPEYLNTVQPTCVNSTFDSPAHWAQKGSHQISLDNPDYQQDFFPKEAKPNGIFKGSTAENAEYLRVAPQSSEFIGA
T3 sequence (P00533 25-645 limits assumed): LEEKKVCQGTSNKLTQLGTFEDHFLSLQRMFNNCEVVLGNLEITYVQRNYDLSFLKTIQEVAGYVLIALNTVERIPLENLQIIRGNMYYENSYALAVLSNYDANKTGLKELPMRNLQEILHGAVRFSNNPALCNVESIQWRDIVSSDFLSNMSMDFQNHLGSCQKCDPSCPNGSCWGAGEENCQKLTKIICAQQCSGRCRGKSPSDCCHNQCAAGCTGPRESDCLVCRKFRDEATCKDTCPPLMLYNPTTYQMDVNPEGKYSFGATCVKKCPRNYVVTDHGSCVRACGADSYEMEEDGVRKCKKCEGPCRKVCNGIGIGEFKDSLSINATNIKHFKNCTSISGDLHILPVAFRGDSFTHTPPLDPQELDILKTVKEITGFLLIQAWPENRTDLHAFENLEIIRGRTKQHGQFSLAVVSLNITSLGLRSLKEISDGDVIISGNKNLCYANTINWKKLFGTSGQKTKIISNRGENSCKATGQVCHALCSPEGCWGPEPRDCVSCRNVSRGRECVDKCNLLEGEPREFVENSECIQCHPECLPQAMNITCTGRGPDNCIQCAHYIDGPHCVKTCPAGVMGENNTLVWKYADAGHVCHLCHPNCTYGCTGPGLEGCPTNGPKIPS
T5 sequence (P00533 25-1210 L858R): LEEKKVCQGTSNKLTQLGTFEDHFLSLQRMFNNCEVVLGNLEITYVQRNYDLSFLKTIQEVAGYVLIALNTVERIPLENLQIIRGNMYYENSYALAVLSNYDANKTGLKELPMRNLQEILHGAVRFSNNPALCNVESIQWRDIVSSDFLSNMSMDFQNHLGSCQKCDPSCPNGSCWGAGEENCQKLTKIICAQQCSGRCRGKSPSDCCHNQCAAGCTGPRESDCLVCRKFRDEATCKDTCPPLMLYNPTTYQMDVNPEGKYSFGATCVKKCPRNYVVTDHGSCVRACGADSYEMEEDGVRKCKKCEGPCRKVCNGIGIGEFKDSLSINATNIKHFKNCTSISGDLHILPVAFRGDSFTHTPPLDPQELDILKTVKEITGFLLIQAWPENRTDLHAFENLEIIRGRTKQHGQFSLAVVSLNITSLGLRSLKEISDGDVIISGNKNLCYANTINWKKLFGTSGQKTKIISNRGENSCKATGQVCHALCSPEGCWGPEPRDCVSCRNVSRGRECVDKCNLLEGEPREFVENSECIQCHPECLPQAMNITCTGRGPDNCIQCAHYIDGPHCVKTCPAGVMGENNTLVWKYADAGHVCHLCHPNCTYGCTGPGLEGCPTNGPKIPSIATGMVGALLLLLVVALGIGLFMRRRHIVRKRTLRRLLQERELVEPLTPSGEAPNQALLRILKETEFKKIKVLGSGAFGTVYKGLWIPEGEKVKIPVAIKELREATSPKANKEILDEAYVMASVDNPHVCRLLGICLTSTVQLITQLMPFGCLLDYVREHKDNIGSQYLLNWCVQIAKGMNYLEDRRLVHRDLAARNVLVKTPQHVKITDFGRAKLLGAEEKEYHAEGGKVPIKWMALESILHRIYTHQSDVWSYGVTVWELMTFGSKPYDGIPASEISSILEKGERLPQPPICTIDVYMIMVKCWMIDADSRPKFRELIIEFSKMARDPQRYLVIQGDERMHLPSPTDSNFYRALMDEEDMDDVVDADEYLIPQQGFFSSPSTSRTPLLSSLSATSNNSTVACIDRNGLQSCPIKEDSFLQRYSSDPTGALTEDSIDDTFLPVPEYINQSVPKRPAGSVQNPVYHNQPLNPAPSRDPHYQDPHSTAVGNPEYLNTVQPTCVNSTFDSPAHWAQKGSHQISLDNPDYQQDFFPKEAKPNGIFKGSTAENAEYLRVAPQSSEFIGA

Compound | Kd [1] | binding to kinase domain of EGFR [2] | Kd [3] | EC50 (MCF-7 cells; MCF7, 24 h) | IC50 (EGFR L858R) | IC50 (EGFR L858R/T790M) | IC50 (EGFR T790M) | IC50 (WT EGFR; IC50 against WT EGFR) | also measured
CC[C@@H](C)[C@H]1C=C[C@H]2[C@H](OC(=O)/C=C(\C)CC(=O)OC)[C@H](O)C[C@@H](C)[C@@H]2[C@@]1(C)C(=O)CCO [Tandyukisin B] | 30 µM | hardly bind | 7.02 µM |  |  |  |  |  | EC50 (MCF-7 cells; MCF7, MTT, 24 h): 9.2 ± 1.2 µM; IC50 (EGFR T790M; in vitro kinase assay, read-out: IC50 against EGFR T790M): 0.0373 ± 0.0001 µM; IC50 (WT EGFR; read-out: IC50 against WT EGFR): 0.0147 ± 0.0011 µM
CC[C@@H](C)[C@H]1C=C[C@H]2[C@H](OC(=O)C/C(C)=C\C(=O)O)[C@H](O)C[C@@H](C)[C@@H]2[C@@]1(C)C(=O)CCO [Tandyukisin C] | 55.1 µM | hardly bind | 6.56 µM | 8.7 ± 1 µM | 0.003 ± 0.0002 µM | 0.156 ± 0.004 µM | 0.0297 ± 0.0001 µM | 0.0126 ± 0.0001 µM | 
CC[C@@H](C)[C@H]1C=C[C@H]2[C@H](O)[C@H](OC(=O)/C=C(\C)CC(=O)O)C[C@@H](C)[C@@H]2[C@@]1(C)C(=O)CCO [Trichoharzin] | 7.98 µM |  | 6.34 µM | 4.8 ± 0.4 µM | 0.0028 ± 0.0006 µM | 0.0855 ± 0.0277 µM | 0.032 ± 0.0005 µM | 0.0119 ± 0.0001 µM | kon ([1]; Figure 4C-D, read-out: ka, EGFR ligand binding domain): 1810 M⁻¹ s⁻¹; folds weaker than binding alone ([4]; EGF 2.5 nM): 3.3 fold; Kd ([4]; EGF 2.5 nM, Figure 4H, read-out: KD): 26.2 µM; kon ([4]; EGF 2.5 nM, Figure 4H): 1030 M⁻¹ s⁻¹; folds weaker than binding alone ([4]; EGF 10 nM): 5.1 fold; Kd ([4]; EGF 10 nM, Figure 4I, read-out: KD): 40.6 µM; kon ([4]; EGF 10 nM, Figure 4I): 552 M⁻¹ s⁻¹; folds weaker than binding alone ([4]; EGF 20 nM): 7.0 fold; Kd ([4]; EGF 20 nM, Figure 4J, read-out: KD): 56.2 µM; kon ([4]; EGF 20 nM, Figure 4J): 374 M⁻¹ s⁻¹; inhibition of EGF-EGFR interaction ([4]; SPR, concentration-dependent, 125-500 μM): significantly inhibiting; Kd ([4]; in the presence of EGF 2.5 nM, read-out: KD for EGFR extracellular ligand binding domain): 26.2 µM; Kd ([4]; in the presence of EGF 10 nM, read-out: KD for EGFR extracellular ligand binding domain): 40.6 µM; Kd ([4]; in the presence of EGF 20 nM, read-out: KD for EGFR extracellular ligand binding domain): 56.2 µM; kon ([3]; Figure 4A-B, read-out: ka, EGFR kinase domain): 8040 M⁻¹ s⁻¹
